Counter-ions that a name gives are not always drawn.
Assays:
SAMD9 = SAMD9 RNA expression by qRT-PCR in HeLa cells; format: cell-based, human; conditions: fold increase in RNA gene expression vs cells treated with vehicle only
Description: HeLa cells were cultured in DMEM 4.5 g/l glucose medium containing 10% FCS, 1% L-glutamine and 1% penicillin and streptomycin (Biological Industries) and grown at 37° C. and 5% CO2.
Of note, when cells were incubated with CaCx and ApDx (NCI, MA USA), they were grown in the appropriate medium with 0.1% FCS only.
RNA was extracted from cell cultures using an RNA extraction kit (Roche Diagnostics, Mahheim, Germany). cDNA was synthesized from 500 ng of total RNA using the Verso cDNA kit (Thermo Fisher Scientific, Waltham, MA, USA). cDNA PCR amplification was carried out using the Fast SYBR Green Master Mix in a StepOnePlus™ Real-Time PCR System (Applied Biosystems, Foster City, CA, USA) with gene-specific intron-crossing oligonucleotide pairs listed in Table 1 (below). For quantification, standard curves were obtained using serially diluted cDNA amplified in the same qRT-PCR run. The melting temperature (Tm) of the amplified products was measured to confirm the specificity of the reaction conditions. Cycling conditions were as follows: 95° C. for 10 minutes, 95° C. for 10 seconds, 62° C. for 15 seconds, and 72° C. for 25 seconds for a total of 40 cycles. Each sample was analyzed in triplicate. mRNA expression level for target gene was normalized to GAPDH. The results are based the amount of target, normalized to an endogenous reference (IACTB) and relative to a calibrator, as calculated by 2-ΔΔCT. All samples were run in triplicate. The expression levels of target genes were expressed as mRNA relative units.
The potential ability of these 31 molecules to induce SAMD9 expression in cell cultures was then scrutinized.

SAMD9 promoter = assay: High-throughput luciferase reporter screen in HeLa line stably expressing 585 bp SAMD9 promoter fragment; format: cell-based, human; conditions: fold increase in promoter activity by luciferase assay vs cells treated with vehicle only, test drugs 10 μM, 24 hours; for fold induction at 10 µM: Homo sapiens, HeLa, read-out: SAMD9 expression fold change in HeLa reporter assay
Description: HeLa cell lines stably expressing the constructs were generated under neomycin selection. Briefly, pGL4.17 containing a SAMD9 promoter fragment spanning 585 bp upstream to the TSS and an empty pGL4.17 vector were transfected into HeLa cells. Forty eight hours after transfection, standard medium was replaced with medium containing 600 μg/ml G418 (Sigma-Aldrich), cells were kept under G418 selection and the selective medium was replaced approximately every 2-3 days. After two passages, colonies of stable cells were isolated, expanded and frozen for further use.
Test drugs were dispensed at a concentration of 10 μM by a robotic system into 96-well plates containing 9000 cells/well expressing the pGL4.17 reporter construct carrying a 585 bp SAMD9 promoter fragment operably linked to luciferase gene or the empty pGL4.17 luciferase construct (Promega cat. no. E6721). Medium was removed after 24 hours and the cells subjected to Steady-Glo luciferase lysis-substrate solution assay (Promega) as described above. Liquid handling was done with the Tecan (Tecan) Freedom 150 (Robotic & MCA liquid Handling System) and the luciferase reading was done with a robot integrated Tecan Infinite® M1000 reader.
This cell line was then used to robotically screen a total of 1496 compounds obtained from the National Cancer Institute Diversity Set III and Oncology Drugs Set III small molecule libraries.

SAMD9 expression fold change in HeLa reporter assay (SAMD9 promoter) [fold]	Compound	SAMD9 expression fold change in HeLa cells (SAMD9) [fold]	fold induction at 10 µM (SAMD9 promoter)
–	COc1ccc(/C=C2\CCc3ccccc3C2=O)cc1OC [Compound 643175, 2-(3,4-Dimethoxybenzylidene)-1-tetralone]	0.89	2.47
–	Cc1cccc(NC(=O)C=Cc2ccc([N+](=O)[O-])cc2)c1 [Compound 139109, N-(3-methylphenyl)-3-(4-nitrophenyl)acrylamide]	0.72	2.03
–	C[C@@H](CSC(=O)c1ccccc1)C(=O)N1c2ccccc2C[C@@H]1C(=O)O [Compound 604535, (2R)-1-[(2R)-2-methyl-3-phenylcarbonylsulfanyl-propanoyl]-2,3-dihydroindole-2-carboxylic acid]	1.07	2.26
–	COc1cccc2c1C(=O)c1c(O)c3c(c(O)c1C2=O)C[C@@](O)(C(C)=O)C[C@@H]3O[C@H]1C[C@H](N(Cc2ccccc2)Cc2ccccc2)[C@H](O)[C@H](C)O1 [Compound 268242, N,N-Dibenzyldaunorubicin hydrochloride]	3.66	4.84
–	O=C1C(O)=C(CC=C(Cl)Cl)C(=O)c2ccccc21 [Compound 126771, Dichlorolawsone]	3.27	2.23
–	Cc1cc(Cl)ccc1N1C(=O)C(=O)C(c2nc3ccccc3o2)C(=O)C1=O [Compound 623051, 4-(1,3-Benzoxazol-2-yl)-1-(4-chloro-2-methylphenyl)-2,3,5,6-piperidinetetrone]	0.97	2.74
–	CCN(CC)CCNc1ccc2nc(C)n3c4ccc(OC)cc4c(=O)c1c23.Cl [Compound 637993, 5-{[2-(diethylamino)ethyl]amino}-8-methoxy-1-methyl-6h-imidazo[4,5,1-de] acridin-6-one hydrochloride (1:1)]	6.34	3.7
–	N#CC(NCc1cccc(CNC(C#N)c2ccccc2)c1)c1ccccc1 (stereo not drawn) [Compound 681730, 2,2′-(1,3-phenylenebis (methylene))bis(azanediyl)bis(2-phenylacetonitrile)]	1.6	2.48
–	COc1ccc(/C(=N\O)C(c2ccc(OC)cc2)C2C(=O)Oc3ccccc32)cc1 (stereo not drawn) [Compound 641607, 3-(2-(Hydroxyimino)-1,2-bis(4-methoxyphenyl)ethyl)-1-benzofuran-2(3H)-one]	1.27	3.25
–	COc1ccc(/C=C2\Cc3ccccc3C2=O)cc1OC [Compound 643174, 2-(3,4-Dimethoxybenzylidene)-1-indanone]	1.29	2.17
–	COc1ccc(-c2csc(=[N+]3CCCCC3)s2)cc1 [Compound 302358, Piperidinium, 1-[4-(4-methoxyphenyl)-1,3-dithiol-2-ylidene]-, sulfate (1:1)]	0.84	2.72
–	COc1c2c(cc3oc(=O)ccc13)OC(C)(C)C=C2 [Compound 35542, Xanthoxylin N]	4.71	4.08
–	CC[C@@]1(O)C[C@H](OC2CC(N(C)C)C(OC3CC(O)C(CC4CC(O)C(O)C(C)O4)C(C)O3)C(C)O2)c2c(cc3c(c2O)C(=O)c2c(O)ccc(O)c2C3=O)[C@H]1C(=O)OC (stereo partly drawn) [Compound 265211, Rhodirubin E]	1.47	3.36
–	CN(C)c1ccc(/C=C2\Cc3ccccc3C2=O)cc1Br [Compound 643163, 2-(3-Bromo-4-dimethylaminobenzylidene)-1-indanone]	0.79	2.64
–	S=C(Nc1nnc(-c2ccccc2)c(-c2ccccc2)n1)N(/N=C/C=C/c1ccccc1)c1ccccc1 [Compound 640637, 3-Phenylacrylaldehyde N′-(5,6-diphenyl-1,2,4-triazin-3-yl)-N-phenylthiosemicarbazone]	1.16	2.32
–	CN(CCc1ccccn1)c1ccc2c(c1)C(=O)c1ccccc1-2 [Compound 24048, 2-(methyl(2-(2-pyridinyl)ethyl)amino)-9H-fluoren-9-one]	1.62	2.84
–	Nc1ncnc2c1nc(Cl)n2[C@@H]1O[C@@H]2COP(=O)(O)O[C@H]2[C@H]1O [Compound 284751, Adenosine, 8-chloro-, cyclic 3′,5′-(hydrogen phosphate)]	0.87	2.14
–	COc1cc2c3c(n(C)c(=O)c2cc1OC)-c1cc2c(cc1C3=O)OCO2 [Compound 314622, 5H-[1,3]Dioxolo[5,6]indeno[1,2-c]isoquinoline-5,12-dione, 2,3-dimethoxy-6-methyl-]	2.51	2.31
2.71	COc1ccc2c(c1[N+](=O)[O-])CC[C@@H]1[C@@H]2CC[C@]2(C)C(=O)CC[C@@H]12 [Compound 321803, 4-Nitroestrone 3-methyl ether]	–	–
–	Cc1c2cnccc2c(C)c2c1c1ccccc1n2CCOC(=O)c1ccccc1 [Compound 163443, 2-(5,11-dimethyl-6H-pyrido [4,3-b]carbazol-6-yl) ethyl benzoate]	6.49	2.24
–	O=C1Oc2ccccc2C(=O)/C1=C1/C=C(c2ccccc2)SS1 [Compound 293927, (3E)-3-(5-phenyl-3H-1,2-dithiol-3-ylidene)-2H-chromene-2,4(3H)-dione]	1.77	2.82
–	CCN1C(=O)/C(=C\Nc2ccccc2)S/C1=N\Nc1ncc(CC(=O)Nc2ccccc2C)s1 [Compound 658350, 2-(2-(2-(5-(Anilinomethylene)-3-ethyl-4-oxo-1,3-thiazolidin-2-ylidene)hydrazino)-1,3-thiazol-5-yl)-N-(2-methylphenyl) acetamide]	1.01	2.03
–	O=C(c1nc2ccc(Cl)cc2nc1O)C(O)c1ccc2c(c1)OCO2 (stereo not drawn) [Compound 642649, 2-(1,3-Benzodioxol-5-yl)-1-(6-chloro-3-hydroxy-2-quinoxalinyl)-2-hydroxyethanone]	0.85	2.8
–	CN(C)c1ccc2c(SCC(=O)OCC(=O)[C@@]3(O)CC[C@H]4[C@@H]5CCC6=CC(=O)C=C[C@]6(C)[C@H]5C(=O)C[C@@]43C)c3ccc(N(C)C)cc3nc2c1 [Compound 337851, Predorine]	1.23	2.37
–	NC(Cc1ccc2oc3cc(=O)c4ccccc4c-3nc2c1)C(=O)O [Compound 672425, 1,2-Benzo-8-(L-alanyl)-3-phenoxazone nitrate salt]	0.98	2.11
–	CN(C)C(=S)/N=c1\ss/c(=N\C(=S)N(C)C)n1-c1ccc2c(c1)OCO2 [Compound 622589, 3,3′-[4-(1,3-benzodioxol-5-yl)-1,2,4-dithiazolidine-3,5-diylidene]bis[1,1-dimethyl(thiourea)]]	1.17	4.32
–	OC(CN1CCCCC1)c1ccc(/C=C/c2ccc(Cl)cc2)cc1 (stereo not drawn) [Compound 26040]	1.2	3.38
–	CCN(CC)CCOc1ccccc1/C=C/c1noc2ccccc12 [Compound 601101, 2-(2-(2-(1,2-Benzisoxazol-3-yl)vinyl)phenoxy)-N,N-diethylethanamine hydrochloride]	–	2.13

— patent publication US12023348B2, “EGR1 targeting molecules for the treatment of inflammatory and hyperproliferative conditions” (The Medical Research, Infrastructure and Health Services …, priority 2015, dated 2024)
